Tests used:
[1] = system: Pseudomonas aeruginosa ST773 (NDM-1, OXA-395, PDC-16); experiment: Checkerboard MIC, fixed concentration of sBLI (Examples 18-23); type: cell-based
Excerpt: The antibiotics and serine β-lactamase-inhibitors (sBLIs) were purchased from the following suppliers: Ceftazidime (CAZ): Sigma-Aldrich; Cefepime (FEP): Sigma-Aldrich; Cefpodoxime (CEFP): MedChemExpress; Sulbactam (SUL): Sigma-Aldrich Avibactam (AVI): Biosynth; Vaborbactam (VAB): ABCR; Tazobactam (TAZ): Sigma-Aldrich; Taniborbactam (TAN): Sigma-Aldrich.
In each of Examples 3-23, the compound of Example 26 of WO 2018/033719 was employed as the zinc chelator. The following abbreviations are used in these examples: sBLI means serine-β-lactamase inhibitor; CFU means colony-forming unit, which is a group of microbes that grows from a single cell on a petri plate; DMSO means dimethyl sulfoxide; MHB means Mueller-Hinton broth; caMHB means cation-adjusted Mueller-Hinton broth; MIC means minimum inhibitory concentration—the lower the MIC, the more efficient the combination against the respective bacterial strain.
General Protocol 2 Used in Examples 11-23 Employing a Fixed Concentration of sBLI within Each Experiment:
Antimicrobial susceptibility testing (AST) by broth microdilution (MIC determination) was performed according to The European Committee on Antimicrobial Susceptibility Testing (EUCAST) guidelines (see Reading guide for broth microdilution Version 5.0, 2024: https://www.eucast.org).
Sterile clear round bottom polystyrene (non-treated) 96-well microplates (Corning 3788) were used for making serial two-fold dilutions of the antibiotic in cation-adjusted Mueller Hinton II broth (caMHB; Thermo Scientific, T3462, containing 29.4 μM Zn^2+ or MILLIPORE, 90922-500G, containing 5.6 μM Zn^2+), across the columns of the microtiter plate (128-0.06 μg/mL; columns 1-12).
The checkerboard plates were all modified by adding a serine β-lactamase inhibitor (sBLI) at a fixed concentration of 16 μg/mL. Additionally, the zinc chelator was added at various fixed concentrations. Samples were mixed so that all plates contained a control containing antibiotic alone (no sBLI, no zinc chelator), a sample containing antibiotic and sBLI (double combination; no zinc chelator), and a sample containing antibiotic, sBLI and zinc chelator (triple combination). All test wells used in each plate contained growth medium (caMHB), and inoculated bacteria at a final inoculum between 3-7×10^5 CFU/mL. […] Synergy for the triple combination (antibiotic, sBLI, and zinc chelator) was defined as when the MIC in any of the rows containing the zinc chelator in combination with antibiotic and sBLI (triple combination), was lower than for antibiotic alone and lower than for the antibiotic and sBLI double combination.
(§1) An X in rows 1-4 in the table indicates growth of the bacterial inoculum, while a blank cell indicates no growth. Concentrations (μg/mL) of CAZ are given in row 0. AVI and the zinc chelator were added in fixed concentrations (AVI at 16 μg/mL in rows 2-4, zinc chelator at 16 μg/mL in row 3 and at 8 μg/mL in row 4). As a control, the effect of CAZ alone was tested (row 1). All wells contained bacterial growth medium (caMHB, 29.4 μM Zn^2+) and were inoculated with the test bacterium. The grey cells indicate the CAZ MIC.
as §1, with “FEP” for “CAZ”, “SUL” for “AVI”, “(SUL” for “(AVI”
An X in rows 1-5 in the table indicates growth of the bacterial inoculum, while a blank cell indicates no growth. Concentrations (μg/mL) of CAZ are given in row 0. AVI and the zinc chelator were added in fixed concentrations (AVI at 16 μg/mL in rows 2-5, zinc chelator at 16 μg/mL in row 3, at 8 μg/mL in row 4, and at 4 μg/mL in row 5). […]

[2] = system: certain strains of Pseudomonas aeruginosa; conditions: in combination with meropenem; cited from earlier work

Structure (SMILES): CN(C[C@H](O)[C@@H](O)[C@H](O)[C@H](O)CO)C(=O)c1ccc(CN(Cc2ccccn2)Cc2ccccn2)nc1 [zinc chelator]
- synergy with the zinc chelator ([1]; zinc chelator 4 μg/mL, with FEP and AVI 16 μg/mL, caMHB 5.6 μM Zn2+): Synergy
- synergy with the zinc chelator ([1]; zinc chelator 4 μg/mL, with FEP and SUL 16 μg/mL, caMHB 5.6 μM Zn2+): Synergy
- synergy with the zinc chelator ([1]; zinc chelator 8 μg/mL, with CAZ and AVI 16 μg/mL, caMHB 5.6 μM Zn2+): Synergy
- synergy with the zinc chelator ([1]; zinc chelator 8 μg/mL, with CAZ and AVI 16 μg/mL, caMHB 29.4 μM Zn2+): Synergy
- synergy with the zinc chelator ([1]; zinc chelator 8 μg/mL, with FEP and AVI 16 μg/mL, caMHB 5.6 μM Zn2+): Synergy
- synergy with the zinc chelator ([1]; zinc chelator 8 μg/mL, with FEP and SUL 16 μg/mL, caMHB 5.6 μM Zn2+): Synergy
- synergy with the zinc chelator ([1]; zinc chelator 8 μg/mL, with FEP and TAZ 16 μg/mL, caMHB 5.6 μM Zn2+): Synergy
- synergy with the zinc chelator ([1]; zinc chelator 16 μg/mL, with CAZ and AVI 16 μg/mL, caMHB 5.6 μM Zn2+): Synergy
- synergy with the zinc chelator ([1]; zinc chelator 16 μg/mL, with CAZ and AVI 16 μg/mL, caMHB 29.4 μM Zn2+): Synergy
- synergy with the zinc chelator ([1]; zinc chelator 16 μg/mL, with FEP and AVI 16 μg/mL, caMHB 5.6 μM Zn2+): Synergy
- synergy with the zinc chelator ([1]; zinc chelator 16 μg/mL, with FEP and SUL 16 μg/mL, caMHB 5.6 μM Zn2+): Synergy
- synergy with the zinc chelator ([1]; zinc chelator 16 μg/mL, with FEP and SUL 16 μg/mL, caMHB 29.4 μM Zn2+): Synergy
- synergy with the zinc chelator ([1]; zinc chelator 16 μg/mL, with FEP and TAZ 16 μg/mL, caMHB 5.6 μM Zn2+): Synergy
- effect of combination with meropenem [2]: poor effect
